Data on 29 compounds can be found in patent US20230167073A1 (Teijin Pharma Limited, priority 2020, published 2023).

The structures appear in SMILES notation.

This assay concerns the target T1, Human TRPC6 (Homo sapiens, UniProt Q9Y210).
T1 construct: expressed in transfected cells
T1 sequence (Q9Y210 1-931): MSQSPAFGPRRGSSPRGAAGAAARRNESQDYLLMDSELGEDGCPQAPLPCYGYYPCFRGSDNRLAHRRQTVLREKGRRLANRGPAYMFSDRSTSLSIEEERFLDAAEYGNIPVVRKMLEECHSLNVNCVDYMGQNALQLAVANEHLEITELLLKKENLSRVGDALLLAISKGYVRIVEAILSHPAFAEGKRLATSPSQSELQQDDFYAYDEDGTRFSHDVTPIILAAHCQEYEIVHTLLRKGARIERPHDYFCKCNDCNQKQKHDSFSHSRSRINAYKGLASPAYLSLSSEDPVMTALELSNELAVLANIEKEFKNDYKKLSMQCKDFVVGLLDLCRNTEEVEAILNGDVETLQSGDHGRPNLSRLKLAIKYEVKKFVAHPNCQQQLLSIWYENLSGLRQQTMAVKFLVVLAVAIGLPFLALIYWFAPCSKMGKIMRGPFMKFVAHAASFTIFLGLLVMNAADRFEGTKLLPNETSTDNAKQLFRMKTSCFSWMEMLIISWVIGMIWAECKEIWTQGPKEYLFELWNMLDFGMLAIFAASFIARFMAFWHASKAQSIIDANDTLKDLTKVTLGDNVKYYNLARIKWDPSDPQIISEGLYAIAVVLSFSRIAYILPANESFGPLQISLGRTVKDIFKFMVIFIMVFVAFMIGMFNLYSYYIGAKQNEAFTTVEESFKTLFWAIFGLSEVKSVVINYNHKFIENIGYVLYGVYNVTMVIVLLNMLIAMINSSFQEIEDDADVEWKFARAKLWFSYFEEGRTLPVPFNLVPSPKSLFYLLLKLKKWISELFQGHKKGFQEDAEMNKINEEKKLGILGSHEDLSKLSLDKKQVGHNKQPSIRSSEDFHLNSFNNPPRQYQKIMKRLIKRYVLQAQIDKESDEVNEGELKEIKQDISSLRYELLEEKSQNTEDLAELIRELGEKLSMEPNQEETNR
Put plainly: Evaluation of TRPC6 channel inhibitory activity (1), FLIPR Calcium 5 Assay Kit, OAG stimulation (Compound Nos. 1-1293). The following applies: Human TRPC6 stably-expressing cells, OAG 30 μM, FLIPR Calcium 5 Assay Kit; read-out: Inhibitory activity (pIC50 class) (converted). The format is cell-based. Summed up: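 Stable human TRPC6 line; fluorescent Ca2+ dye loading, then 20 min compound exposure before 30 μM OAG trigger. Peak-minus-baseline signal converted to % inhibition against untreated and unstimulated wells; potency given as pIC50 band.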
In the case of `Cc1cc(Oc2cc(C#N)ccc2-c2ncc(CCN)cn2)cc(C2CC2)n1` [compound 315, 4-[5-(2-aminoethyl)pyrimidin-2-yl]-3-(2-cyclopropyl-6-methylpyridin-4-yl)oxybenzonitrile], the IC50 is under 10 nM. As for `Cc1nc(Oc2cc(C#N)ccc2-c2ccc(C3(CN)CC3)cc2)cc(N2CCOCC2)n1` [Compound 67, 4-[4-[1-(aminomethyl)cyclopropyl]phenyl]-3-(2-methyl-6-morpholin-4-ylpyrimidin-4-yl)oxybenzonitrile], the IC50 was 10 to 1000 nM. For the compound `Cc1nc(Oc2cc(C#N)ccc2-n2cc([C@@H](O)CN)cn2)cc(OC2CCCC2)n1` [Compound 265, 4-[4-[(1R)-2-amino-1-hydroxyethyl]pyrazol-1-yl]-3-(6-cyclopentyloxy-2-methylpyrimidin-4-yl)oxybenzonitrile], the IC50 was 10 to 1000 nM.

Take `Cc1nc(Oc2cc(C#N)ccc2-n2cc(C(O)CN(C)C)cn2)cc(N2CCOCC2)n1` (centres unmarked) [Compound 105, 4-[4-[2-(dimethylamino)-1-hydroxyethyl]pyrazol-1-yl]-3-(2-methyl-6-morpholin-4-ylpyrimidin-4-yl)oxybenzonitrile]: the IC50 was over 1000 nM. For the compound `CCc1cc(Oc2cc(C#N)ccc2-c2ccc(OCCN)cn2)n(C)n1` [compound 345, 4-[5-(2-aminoethoxy)pyridin-2-yl]-3-(5-ethyl-2-methylpyrazol-3-yl)oxybenzonitrile], the IC50 was 10 to 1000 nM.

Consider `Cc1nc(Oc2cc(C#N)ccc2-c2ccc([C@H](O)CN)cn2)cc(N2C[C@@H](C)O[C@@H](C)C2)n1` [compound 523, 4-[5-[(1S)-2-amino-1-hydroxyethyl]pyridin-2-yl]-3-[6-[(2S,6R)-2,6-dimethylmorpholin-4-yl]-2-methylpyrimidin-4-yl]oxybenzonitrile], for which the IC50 was 10 to 1000 nM.

As for `CCN(CC(F)F)c1cc(Oc2cc(F)ccc2-c2ccc(CCN)cn2)n(C)n1` [compound 990, 5-[2-[5-(2-aminoethyl)pyridin-2-yl]-5-fluorophenoxy]-N-(2,2-difluoroethyl)-N-ethyl-1-methylpyrazole-3-amine], the IC50 was under 10 nM. With `N#Cc1ccc(-c2ncc(CN)cn2)c(C(=O)c2cnc(N3CCOCC3)o2)c1` [compound 1082, 4-[5-(aminomethyl)pyrimidin-2-yl]-3-(2-morpholin-4-yl-1,3-oxazole-5-carbonyl)benzonitrile] the figure was over 1000 nM; with `CN(CC1CC1)c1cc(Oc2cc(C#N)ccc2-c2ncc(CCN)cn2)n(C)n1` [compound 769, 4-[5-(2-aminoethyl)pyrimidin-2-yl]-3-[5-[cyclopropylmethyl(methyl)amino]-2-methylpyrazol-3-yl]oxybenzonitrile], under 10 nM; with `CCN(CC)c1cc(Oc2cc(C#N)ccc2-c2ncc(CCN)cn2)nc(C)n1` [compound 856, 4-[5-(2-aminoethyl)pyrimidin-2-yl]-3-[6-(diethylamino)-2-methylpyrimidin-4-yl]oxybenzonitrile], under 10 nM. Consider `CCN(CC)c1cc(Oc2cc(C#N)ccc2-c2ccc(CCN)cn2)n(C)n1` [compound 754, 4-[5-(2-aminoethyl)pyridin-2-yl]-3-[5-(diethylamino)-2-methylpyrazol-3-yl]oxybenzonitrile], for which the IC50 is under 10 nM. Take `Cc1nc(Oc2cc(C#N)ccc2-c2ccc(C(O)CN)cc2)cc(N2CCOCC2)n1` (centres unmarked) [Compound 9, 4-[4-(2-amino-1-hydroxyethyl)phenyl]-3-(2-methyl-6-morpholin-4-ylpyrimidin-4-yl)oxybenzonitrile]: the IC50 was under 10 nM. As to `Cc1nc(Oc2cc(C#N)ccc2-c2ccc(CCN)nc2)cc(-c2cccc(F)c2)n1` [Compound 167, 4-[6-(2-aminoethyl)pyridin-3-yl]-3-[6-(3-fluorophenyl)-2-methylpyrimidin-4-yl]oxybenzonitrile], the IC50 is 10 to 1000 nM. With `Cc1c(Oc2cc(C#N)ccc2-c2ncc(CCN)cn2)cnn1CC(F)F` [compound 925, 4-[5-(2-aminoethyl)pyrimidin-2-yl]-3-[1-(2,2-difluoroethyl)-5-methylpyrazol-4-yl]oxybenzonitrile] the figure was over 1000 nM. The value for `Cc1cc(Oc2cc(C#N)ccc2-c2ccc(C[C@H](N)C(=O)O)cn2)cc(N2CCOCC2)n1` [compound 611, (2S)-2-amino-3-[6-[4-cyano-2-(2-methyl-6-morpholin-4-ylpyridin-4-yl)oxyphenyl]pyridin-3-yl]propanoic acid] was over 1000 nM; that for `Cn1nc(C2CCOCC2)cc1Oc1cc(C#N)ccc1-c1ccc(CCN)cn1` [Compound 227, 4-[5-(2-aminoethyl)pyridin-2-yl]-3-[2-methyl-5-(oxan-4-yl)pyrazol-3-yl]oxybenzonitrile] was under 10 nM; that for `Cc1nc(NC2CCOCC2)cc(Oc2cc(C#N)ccc2-c2ncc(CN)cn2)n1` [compound 635, 4-[5-(aminomethyl)pyrimidin-2-yl]-3-[2-methyl-6-(oxan-4 ylamino)pyrimidin-4-yl]oxybenzonitrile] was over 1000 nM.

As to `COCCOc1cc(Oc2cc(C#N)ccc2-c2ccc(CCN)cc2)nc(C)n1` [Compound 48, 4-[4-(2-aminoethyl)phenyl]-3-[6-(2-methoxyethoxy)-2-methylpyrimidin-4-yl]oxybenzonitrile], the IC50 is 10 to 1000 nM. Consider `CCc1cc(C(=O)c2cc(C#N)ccc2-c2ncc(CN)cn2)n(C)n1` [compound 1026, 4-[5-(aminomethyl)pyrimidin-2-yl]-3-(5-ethyl-2-methylpyrazole-3-carbonyl)benzonitrile], for which the IC50 was under 10 nM. Consider `Cc1c(Oc2cc(F)ccc2-c2ncc(CCN)cn2)cnn1CC(C)C` [Compound No. 967, 2-[2-[4-fluoro-2-[5-methyl-1-(2-methylpropyl)pyrazol-4-yl]oxyphenyl]pyrimidin-5-yl]ethanamine], for which the IC50 is 10 to 1000 nM. With `Cn1nc(C2CC2)cc1Oc1cc(C#N)ccc1-c1ccc([C@H](O)CN)cn1` [compound 375, 4-[5-[(1S)-2-amino-1-hydroxyethyl]pyridin-2-yl]-3-(5-cyclopropyl-2-methylpyrazol-3-yl)oxybenzonitrile] the figure was under 10 nM. For the compound `Cn1nc(-c2ncco2)cc1Oc1cc(C#N)ccc1-c1ccc([C@H](O)CN)cn1` [compound 588, 4-[5-[(1S)-2-amino-1-hydroxyethyl]pyridin-2-yl]-3-[2-methyl-5-(1,3-oxazol-2-yl)pyrazol-3-yl]oxybenzonitrile], the IC50 is 10 to 1000 nM. Turning to `N#Cc1ccc(-c2ccc(CCN)cc2)c(Sc2cnnc(N3CCCCC3)c2)c1` [Compound No. 1240, 4-[4-(2-Aminoethyl)phenyl]-3-(6-piperidin-1-ylpyridazin-4-yl)sulfanylbenzonitrile], the IC50 is under 10 nM. Regarding `Cc1nc(Oc2cc(C#N)ccc2-c2ncc(CCN)cn2)cc(-c2ccccc2C#N)n1` [Compound 295, 4-[5-(2-aminoethyl)pyrimidin-2-yl]-3-[6-(2-cyanophenyl)-2-methylpyrimidin-4-yl]oxybenzonitrile], the IC50 was under 10 nM. Turning to `CCN(CC(F)F)c1cc(Oc2cc(C#N)ccc2-c2ncc(CCN)cn2)n(C)n1` [Compound No. 875, 4-[5-(2-Aminoethyl)pyrimidin-2-yl]-3-[5-[2,2-difluoroethyl(ethyl)amino]-2-methylpyrazol-3-yl]oxybenzonitrile], the IC50 is under 10 nM. `Cc1nn(-c2ccccn2)cc1Oc1cc(C#N)ccc1-c1ncc(CCN)cn1` [compound 832, 4-[5-(2-aminoethyl)pyrimidin-2-yl]-3-(3-methyl-1-pyridin-2-ylpyrazol-4-yl)oxybenzonitrile]: the IC50 is under 10 nM.

With `Cc1nc(Oc2cc(C#N)ccc2-n2cc(N3CCNCC3=O)cn2)cc(C2CCCC2)n1` [Compound 208, 3-(6-Cyclopentyl-2-methylpyrimidin-4-yl)oxy-4-[4-(2-oxopiperazin-1-yl)pyrazol-1-yl]benzonitrile], the IC50 was over 1000 nM. For `Cc1nc(Oc2cc(C#N)ccc2-c2ncc(CN)cn2)cc(N2CCC[C@H]2C#N)n1` [compound 675, (2S)-1-[6-[2-[5-(aminomethyl)pyrimidin-2-yl]-5-cyanophenoxy]-2-methylpyrimidin-4-yl]pyrrolidine-2-carbonitrile], the IC50 is 10 to 1000 nM. On to `Cc1nn(CC(F)F)c(C)c1Oc1cc(C#N)ccc1-c1ncc(CCN)cn1` [compound 940, 4-[5-(2-aminoethyl)pyrimidin-2-yl]-3-[1-(2,2-difluoroethyl)-3,5-dimethylpyrazol-4-yl]oxybenzonitrile], for which the IC50 was over 1000 nM.
